Data taken from patent US12527752B2, “Composition based on gellan gum and phenylephrine, production method and use as an ophthalmic product” (UNITHER PHARMACEUTICALS, priority 2019, dated 2026).

System: human corneal epithelial (HCE) cell line
Assay: Cytotoxicity neutral red test
Assay type: cell-based
Conditions: HCE cells, 30 minutes incubation
Description: A human corneal epithelial (HCE) cell line was cultured in Dulbecco's essential medium (Eurobio, Les Ulis, France) supplemented with 10% fetal calf serum (Eurobio), 1% glutamine (Eurobio) and 1% penicillin and streptomycin (Eurobio). Cultures were maintained at 37° C. in 5% CO2 in a humidified incubator.
All wells were seeded with the same number of cells (9×10^4 cells/mL solution). After 24 hours, the cells reached about 70% to 80% confluency. The cells were washed with PBS and incubated for 30 minutes with 100 μL of gels in situ. […] The cells were then washed with PBS. A neutral red test was performed immediately after incubation and after 24 hours of recovery in the culture medium. The experiments were performed in triplicate.
The neutral red test (Fluka, Buchs, Switzerland) is a cell viability test based on the ability of viable cells to incorporate neutral red, which is a weak cationic dye that readily penetrates cell membranes by nonionic diffusion and accumulates in lysosomes. […] The integrity of the lysosomal membrane is closely related to cell viability and is assessed by neutral red fluorescence (excitation at 535 nm; emission at 600 nm). […] The dye was then released from the cells using 200 μL of lysis solution per well (1% acetic acid, 50% ethanol and 49% H2O), then the fluorescence was measured using a fluorometer for microplates (Safire; Tecan, Lyon, France).

With `CNC[C@H](O)c1cccc(O)c1` [PHE, phenylephrine] the “effect on cell viability” value was “significant cytotoxicity”.
